What was measured:
Histone deacetylase 1 [1] = target: T1, Histone deacetylase 1 (Homo sapiens, UniProt Q13547); assay: Inhibition of HDAC1 (unknown origin) preincubated for 5 mins followed by fluorogenic substrate addition measured after 30 mins by microplate reader analysis
HCT-116 = assay: Cytotoxicity against human HCT116 cells assessed as inhibition of cell proliferation after 72 hrs by MTT assay; type: functional, cell-based; settings: HCT-116, 72 h
MCF7 = assay: Cytotoxicity against human MCF7 cells assessed as inhibition of cell proliferation after 72 hrs by MTT assay; type: functional, cell-based; settings: MCF7, 72 h
A549 [2] = assay: Cytotoxicity against human A549 cells assessed as inhibition of cell proliferation after 72 hrs by MTT assay; type: functional, cell-based; settings: A549, 72 h
Histone deacetylase 1 [3] = target: T1, Histone deacetylase 1; assay: Potency index, ratio of MS-275 IC50 to compound IC50 for HDAC1 (unknown origin)
A549 [4] = assay: Potency index, ratio of MS-275 IC50 to compound IC50 for human A549 cells; type: functional
[5] = Elimination half life in Sprague-Dawley rat at 5 mg/kg, iv; type: ADME, organism-based; settings: in vivo, read-out: beta t1/2 (converted)
[6] = Elimination half life in Sprague-Dawley rat at 25 mg/kg, po; type: ADME, organism-based; settings: in vivo, read-out: beta t1/2 (converted)
[7] = Tmax in Sprague-Dawley rat at 25 mg/kg, po; type: ADME, organism-based; settings: in vivo
[8] = AUClast in Sprague-Dawley rat at 25 mg/kg, po; type: ADME, organism-based; parameters: dose 25 mg/kg, route oral, time 0 - last; settings: in vivo
[9] = AUCinfinity_obs in Sprague-Dawley rat at 25 mg/kg, po; type: ADME, organism-based; parameters: dose 25 mg/kg, time infinity, route oral; settings: in vivo
[10] = Oral bioavailability in Sprague-Dawley rat at 25 mg/kg; type: ADME, organism-based; settings: in vivo

T1 sequence (Q13547 whole entry): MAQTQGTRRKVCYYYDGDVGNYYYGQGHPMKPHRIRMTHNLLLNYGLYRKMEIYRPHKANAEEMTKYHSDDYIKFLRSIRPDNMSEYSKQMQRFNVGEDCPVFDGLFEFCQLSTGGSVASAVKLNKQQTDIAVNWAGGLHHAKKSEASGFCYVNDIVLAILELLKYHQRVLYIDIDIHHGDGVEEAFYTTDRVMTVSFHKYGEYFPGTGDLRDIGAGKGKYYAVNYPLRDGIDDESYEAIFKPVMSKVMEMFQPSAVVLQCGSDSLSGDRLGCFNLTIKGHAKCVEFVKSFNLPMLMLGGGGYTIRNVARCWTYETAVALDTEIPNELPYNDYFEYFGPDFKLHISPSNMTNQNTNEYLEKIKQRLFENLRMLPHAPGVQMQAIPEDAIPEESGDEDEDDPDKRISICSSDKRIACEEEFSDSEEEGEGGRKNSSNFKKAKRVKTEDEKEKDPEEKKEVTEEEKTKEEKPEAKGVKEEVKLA

IC50 (Histone deacetylase 1 [1])	Ratio IC50 (Histone deacetylase 1 [3])	half-life [5]	half-life [6]	Tmax [7]	AUC(0-t) [8]	AUC(0-inf) [9]	bioavailability [10]	Structure (SMILES)	IC50 (HCT-116)	IC50 (MCF7)	IC50 (A549 [2])	Ratio IC50 (A549 [4])
173 nM	–	–	–	–	–	–	–	Cc1nc2ccccn2c1/C=C/C(=O)NCc1ccc(C(=O)Nc2ccccc2N)cc1	1430 nM	6.22 µM	1300 nM	–
169 nM	–	–	–	–	–	–	–	Nc1ccccc1NC(=O)c1ccc(CCNC(=O)/C=C/c2c[nH]c3ccccc23)cc1	1570 nM	5.02 µM	1280 nM	–
178 nM	–	–	–	–	–	–	–	Cc1nc2ccccn2c1/C=C/C(=O)NCCc1ccc(C(=O)Nc2ccccc2N)cc1	1960 nM	6.8 µM	1460 nM	–
154 nM	–	–	–	–	–	–	–	Nc1ccccc1NC(=O)c1ccc(CCNC(=O)/C=C/c2cnc3cccnn23)cc1	2300 nM	4.67 µM	1150 nM	–
217 nM	–	–	–	–	–	–	–	Nc1ccccc1NC(=O)c1ccc(CCNC(=O)/C=C/c2cnc3ccccn23)cc1	4500 nM	9.44 µM	1470 nM	–
–	–	–	–	–	–	–	–	Nc1ccccc1NC(=O)c1ccc(CNC(=O)OCc2cccnc2)cc1 [ENTINOSTAT]	5100 nM	7.88 µM	3130 nM	–
137 nM	–	–	–	–	–	–	–	Nc1ccc(F)cc1NC(=O)c1ccc(CNC(=O)/C=C/c2cnc3cccnn23)cc1	4290 nM	11 µM	812 nM	–
131 nM	–	–	–	–	–	–	–	Nc1cc(F)ccc1NC(=O)c1ccc(CNC(=O)/C=C/c2cnc3cccnn23)cc1	2260 nM	5.51 µM	791 nM	–
118 nM	2	112 min	493 min	1.17 h	6780 ng·h/mL	8610 ng·h/mL	76%	Nc1ccccc1NC(=O)c1ccc(CNC(=O)/C=C/c2cnc3cccnn23)cc1	1260 nM	2.87 µM	723 nM	5
120 nM	2	–	–	–	–	–	–	Nc1ccccc1NC(=O)c1ccc(CNC(=O)/C=C/c2c[nH]c3ccccc23)cc1	1220 nM	2.92 µM	649 nM	–
129 nM	–	–	–	–	–	–	–	Nc1ccccc1NC(=O)c1ccc(CNC(=O)/C=C/c2cnc3ccccn23)cc1	2300 nM	4.13 µM	832 nM	–
